In patent publication US20200306254A1, “COMBINATION OF ERK1/2 INHIBITOR COMPOUND WITH GEMCITABINE OR WITH GEMCITABINE AND NAB-PACLITAXEL FOR USE IN TREATMENT OF PANCREATIC CANCER” (Eli Lilly and Company, priority 2016, published 2020):
Like-named read-outs stand apart in the source and are kept apart here.

Experiments:
[1] = test system: human pancreatic cancer cells MIA PaCa2 xenograft; test: Xenograft Tumor Model (MIA PaCa2); format: in vivo, female athymic nude mice; conditions: for Delta T/C % or Regression %: oral gavage, 14 days
Description: The purpose of this assay is to measure reduction in tumor volume in response to test compound administration. Expand human pancreatic cancer cells MIA PaCa2 (ATCC, # CRL1420) in culture, harvest and inject 5×10e^6 cells in 200 μL of 1:1 HBSS+matrigel solution subcutaneously on the rear right flank of female athymic nude mice (22-25 g, Harlan Laboratories). Measure tumor growth and body weight twice per week beginning the seventh day after the implantation. When tumor sizes reach 200-400 mm^3, randomize animals and group into groups of eight to ten animals. Prepare test compound in an appropriate vehicle (vehicle: […]/0.25% TWEEN® 80/0.05% Antifoam) and administer by oral gavage daily for 14 days. Tumor response is determined by tumor volume measurement performed twice a week during the course of treatment. Body weight is taken as a general measure of toxicity.
Regression % is calculated when the endpoint volume is below baseline. The formula is 100*(T−T0)/T0. Where T0 is the mean baseline tumor volume for the treated group. Grand mean of all groups from baseline (randomization) at day 20 used to compute % change of T/C.

[2] = test system: KRAS mutant (G12V) Capan-2 pancreatic cancer xenograft; format: in vivo; conditions: for Delta T/C % or % Regression: Day 34, Compound A 50 mg/kg QD PO, gemcitabine 100 mg/kg once weekly IP; for Difference (Treatment 1 − Treatment 2), tumor growth: Treatment 1 = Vehicle QD x 28 PO, log10 tumor volume, Compound A 50 mpk QD x 28 PO, Gemcitabine 100 mpk Q7D x 4 IP; for inhibition of tumor growth: single agents vs vehicle control group, combination vs each single agent alone
Description: Human pancreatic cancer cell line Capan-2 (ATCC cat # HTB-80) are cultured in DMEM supplemented with 10% fetal bovine serum, sodium pyruvate, nonessential amino acids, L-glutamine, and penicillin-streptomycin (Invitrogen, Carlsbad, Calif.). All cultures are maintained in a humidified incubator at 37° C. under 5% CO2/95% air free off mycoplasma and pathogenic murine viruses. The cells are used for experiments at passages <7 after recovery from frozen stocks.
Female CB-17 SCID nude mice are ordered from Charles River Laboratories International, Inc. All animals are acclimated for one week before the use and are housed and maintained in specific pathogen-free conditions in accordance with the guidelines of the American Association for Laboratory Animal Care and all current regulations and standards of the U.S. Departments of Agriculture and of Health and Human Services and the NIH. The experiment protocol is approved by the Eli Lilly and Company Animal Care and Use Committee.
Logarithmically growing Capan-2 cells (5×10^6/200 μL, single-cell suspensions of over 95% viability in Hank's medium mixed with equal volume of Matrigel (Becton Dickinson & Co., San Jose, Calif.)) are subcutaneously injected into the flank of the mice. When the average tumor volume reaches about 200 to 300 mm^3 following tumor cell implantation, the animals are randomized into different groups (n=5). The animals are treated with vehicle control (1% HEC/0.25% TWEEN® 80/0.05% Antifoam, daily, orally), Compound A (50 mg/kg, QD, PO), gemcitabine (100 mg/kg, once weekly, intraperitoneal), and the combination for 4 weeks. Compound A was formulated in 1% HEC/0.25% TWEEN® 80/0.05% Anti foam and gemcitabine is formulated in phosphate buffered saline (lx). Tumor volume and body weight are measured twice weekly. Tumor volume is estimated by using the formula: v=l×w2×0.536 where l=larger of measured diameter and w=smaller of perpendicular diameter.
The statistical analysis of the tumor volume data begins with a data transformation to a log scale to equalize variance across time and treatment groups. The log volume data are analyzed with a two-way repeated measures analysis of variance by time and treatment using the MIXED procedures in SAS software (Version 9.3). The correlation model for the repeated measures is Spatial Power. Treated groups are compared to the control group at each time point. The MIXED procedure is also used separately for each treatment group to calculate adjusted means and standard errors at each time point. Both analyses account for the autocorrelation within each animal and the loss of data that occurs when animals with large tumors are removed from the study early. The adjusted means and standard errors (s.e.) are plotted for each treatment group versus time. Analysis for tumor volume is based on log10 and spatial power covariance structure. P value is based on the comparison between two specific groups.
First, the usual repeated measures model is fit to log volume versus group and time. Then contrast statements are used to test for an interaction effect at each time point using the 2 specific treatments that are combined. This is equivalent to the Bliss Independence method and assumes that tumor volumes can, in theory, reach zero, i.e., complete regression. The expected additive response (EAR) for the combination is calculated on the tumor volume scale as: response (EAR) EAR volume=V1*V2/V0, where V0, V1, and V2 are the estimated mean tumor volumes for the vehicle control, treatment 1 alone, and treatment 2 alone, respectively. If the interaction test is significant, the combination effect is declared statistically more than additive or less than additive depending on the observed combination mean volume being less than or more than the EAR volume, respectively. Otherwise, the statistical conclusion is additive. In addition, a biologically relevant range of additivity can be defined as X % above and below the EAR volume. Typically, X would be 25 to 40%. […]

[3] = test system: ERK substrate (RSK) phosphorylation in HCT116 colorectal cancer cell line; test: ERK1/2 Cell Mechanistic Assay (pRSK1 Alphascreen Assay); format: cell-based; conditions: Homo sapiens, HCT-116, HCT116 cells, 2 h, n=8, read-out: IC50, ERK substrate (RSK) phosphorylation in tumor cells
Description: The purpose of this assay is to measure the ability of a compound to inhibit ERK signaling in cancer cells in vitro. Carry out the pRSK1 Alphascreen assay using the HCT116 colorectal cancer cell line (ATCC, # CCL-247). Routinely culture HCT116 cells in Dulbecco's Modified Eagle's Medium (DMEM) (Hyclone, # SH30022) growth medium containing 5%0/Fetal Bovine Serum (FBS) (Gibco, #16000-044) in T-150 flasks and incubate in a 5% CO2 incubator at 37° C. Harvest cells when they become confluent and freeze in freezing medium at 1×10e^7 cells/mL as “assay ready frozen cells” and store in liquid nitrogen. To run the assay, plate 40,000 HCT116 cells/well in a 96-well tissue culture plate and incubate at 37° C. in a 5% CO2 incubator overnight. Test compounds at 10 concentrations starting at a 20 μM top concentration and utilize a 1:3 dilution scheme (20 μM to 0.001 μM) with a final DMSO concentration of 0.5% (v/v). Add compounds in 20 μL serum free growth medium and incubate at 37° C. for two hours. Remove growth medium and add 50 μL of 1× lysis buffer [Cell Signaling Technology, #9803] containing 1× holt protease and […] inhibitor cocktail [Thermo, #78441] to each well and incubate at room temperature for 10 minutes on a shaker. […] Measure the fluorescence intensity in each well by reading the plates in ENVISION® (PerkinElmer) plate reader. […]

Cn1nccc1Nc1nccc(-c2cc3c(s2)C(C)(C)N(CCN2CCOCC2)C3=O)n1 [Compound A, 6,6-Dimethyl-2-{2-[(1-methyl-1H-pyrazol-5-yl)amino]pyrimidin-4-yl}-5-[2-(morpholin-4-yl)ethyl]-5,6-dihydro-4H-thieno[2,3-c]pyrrol-4-one]
Delta T/C % or Regression % ([1]; MIA PaCa2 xenograft, 25 mg/kg QD): 2% | Delta T/C % or Regression % ([1]; MIA PaCa2 xenograft, 50 mg/kg QD): −22% | Delta T/C % or Regression % ([1]; MIA PaCa2 xenograft, 100 mg/kg QD): −66% | Delta T/C % or Regression % ([1]; MIA PaCa-2 xenograft, 12.5 mg/kg QD): 32% | anti-tumor activity ([1]; human pancreatic cancer xenograft model (MIA PaCa2)): significant anti-tumor activity | Delta T/C % or % Regression [2]: 40% | Difference (Treatment 1 − Treatment 2), tumor growth [2]: 0.397 | inhibition of tumor growth [2]: partial inhibition of tumor growth | IC50 [3]: 0.429 µM

Nc1ccn([C@@H]2O[C@H](CO)[C@@H](O)C2(F)F)c(=O)n1 [Gemcitabine, gemcitabine]
Delta T/C % or % Regression [2]: 24% | Delta T/C % or % Regression ([2]; listed as gemcitabine): 20% | Difference (Treatment 1 − Treatment 2), tumor growth [2]: 0.633 | inhibition of tumor growth [2]: partial inhibition of tumor growth
